Measurements from patent publication US11628181B2, “N4-hydroxycytidine and derivatives and anti-viral uses related thereto” (Emory University, priority 2014, dated 2023).
In brackets after ≈: the same amount, converted by molar mass. Where two headings read alike, the source gives them in different places.

Key:
SARS Coronavirus Urbani = assay: microbe, parasite or virus in culture; type: cell-based; conditions: Severe acute respiratory syndrome-related coronavirus, Vero 76
in vitro = conditions: African green monkey
Norovirus GT1 = Norovirus GT1 antiviral screening in HG23; type: cell-based
[1] = Cytotoxicity (CC50) in HG23, norovirus screening; type: cell-based; conditions: human, HG23 cells; HG23, norovirus screen
CHIK virus = assay: Mouse model of Chikungunya infection; conditions: CHIKV challenged mice, 25 or 35 mg/kg i.p.
CEM cells = assay: Cytotoxicity profile, selectivity index in CEM cells; type: cell-based; conditions: CEM cells (low of range)
VEE virus = assay: organism not typed; type: cell-based; conditions: Vero
in vivo = conditions: male, SD, rat, po, 50 mg/kg
[2] = Rodent pharmacokinetic experiment in mice; type: in vivo, DBA-1J mice; conditions: female, DBA-1J, mouse, plasma, after IV dosing, read-out: plasma T1/2 (converted)
[3] = 6 day q.d. intraperitoneal toxicology in mice; type: in vivo
Excerpt: Alternatively, drug delivery by aerosol (nasal spray) administration may immediately achieve therapeutic levels of drug in the nasal mucosa and the brain.

[4] = rat, in vivo, po, 50 mg/kg
[5] = Rodent pharmacokinetic experiment in mice; type: in vivo, DBA-1J mice; conditions: for concentration at 24 hr: read-out: 24 hr plasma levels
Description: DBA-1J mice (6-8 weeks old, female) were acclimated for ≥2 days after receipt. Mice were weighed the day before dosing to calculate dosing volumes. Mice were dosed by oral gavage with drug at 30 mg/kg, 100 mg/kg & 300 mg/kg. The mice were sampled at […] time points: 0.5, 1, 2, 3, 4, 8 and 24 hrs (3 mice per time point for test drug). The mice were euthanized and their organs were collected (see below). In order to collected blood, mice with euthanized by CO2 at the appropriate time point listed above. Blood was obtained by cardiac puncture (0.3 ml) at each time point. Following blood collection, the organs were removed from the mice (see below). The blood was processed by inverting Li-Heparin tube with blood gently 2 or 3 times to mix well. The tubes were then placed in a rack in ice water until able to centrifuge (≤1 hour). As soon as practical, the blood was centrifuged at ˜2000×g for 10 min in a refrigerated centrifuge to obtain plasma. Then, using a 200 μL pipette, the plasma was transferred to a labeled 1.5 ml Eppendorf tube in ice water. The plasma was then frozen in freezer or on dry ice. The samples were stored at −80° C. prior to analysis. Organs were collected from euthanized mice. The organs (lungs, liver, kidney, spleen and heart) were removed, placed in a tube, and immediately frozen in liquid nitrogen. The tubes were then transferred to dry ice. The samples were saved in cryogenic tissue vials. Samples were analyzed by LC-MS/MS using an ABSCIEX 5500 QTRAP LC-MS/MS system with a Hypercarb (PGC) column.

VEEV = assay: microbe, parasite or virus in culture; type: cell-based; conditions: Venezuelan equine encephalitis virus, Astrocyte
MERV = MERV (MOI 0.4) viral inhibition in Vero; type: cell-based; conditions: MERV MOI 0.4, Vero; for inhibition at 10 µM: read-out: Viral Inh. 10 uM; for inhibition at 50 µM: read-out: Viral Inh. 50 uM
Vero = assay: Cell viability, Vero (MERV screen); type: cell-based

CCCCCCCCC(=O)ONc1ccn([C@@H]2O[C@H](CO)C(O)C2O)c(=O)n1 (some centres unmarked)
EC50 (SARS Coronavirus Urbani): 0.19 µg/mL (≈ 0.476 µM)
CC50 (in vitro): 36 µg/mL (≈ 90.1 µM)

CONc1ccn([C@@H]2O[C@H](CO)C(O)C2O)c(=O)n1 (some centres unmarked)
EC50 (SARS Coronavirus Urbani): > 100 µg/mL
CC50 (in vitro): > 100 µg/mL

CC1(O)C(O)[C@@H](CO)O[C@H]1n1ccc(NO)nc1=O (some centres unmarked)
EC50 (SARS Coronavirus Urbani): > 100 µg/mL
EC50 (Norovirus GT1): > 100 µg/mL
CC50 [1]: > 100 µg/mL
CC50 (in vitro): > 100 µg/mL

O=c1nc(NO)ccn1[C@@H]1O[C@H](CO)[C@H](O)C1O (some centres unmarked) [EIDD-01931, 1-(3,4-dihydroxy-5-(hydroxymethyl)tetrahydrofuran-2-yl)-4-(hydroxyamino)pyrimidin-2-one]
CHIKV RNA copies by PCR (FIG. 8) (CHIK virus; after 7 days): reduction of CHIKV RNA copies
footpad swelling (FIG. 7) (CHIK virus; daily for 7 days): reduction in footpad swelling
selectivity index (CEM cells): 8
EC50 (VEE virus): 1 µM
bioavailability (in vivo): 28%
half-life [2]: 2.2 h
NOEL (NO Effect Level) ([3]; 6 day q.d. IP injections): 33 mg/kg
body weight effect ([3]; highest dose tested (100 mg/kg) IP q.d., reversed on cessation of dosing): weight loss was observed
tissue distribution (brain, lung, spleen, kidney and liver) [4]: well distributed into all tissues tested
Bioavailability (versus I.P. delivery) ([5]; PO 30 mg/kg): 65%
Bioavailability (versus I.P. delivery) ([5]; PO 100 and 300 mg/kg): 39-46%
Cmax ([5]; female, DBA-1J, mouse, plasma, PO 30 mg/kg): 3 ng/mL
Cmax ([5]; female, DBA-1J, mouse, plasma, PO 100 mg/kg): 7.7 ng/mL
Cmax ([5]; female, DBA-1J, mouse, plasma, PO 300 mg/kg): 11.7 ng/mL
half-life ([5]; female, DBA-1J, mouse, plasma, after PO dosing, read-out: plasma T1/2): 4.1 to 4.7 h
Tmax ([5]; female, DBA-1J, mouse, plasma, oral gavage, read-out: Tmax after oral dosing): 0.25 to 0.5 h
concentration at 24 hr ([5]; female, DBA-1J, mouse, plasma, oral, 100 mg/kg dose): ~100 nM
concentration at 24 hr ([5]; female, DBA-1J, mouse, plasma, po, 300 mg/kg P.O.): ~400 nM
CC50 (CHIKV): > 500 µM

O=c1nc(NO)ccn1[C@@H]1O[C@H](CO)C(O)C1O (some centres unmarked) [drawing 68]
EC50 (SARS Coronavirus Urbani): < 0.1 µg/mL
EC50 (Norovirus GT1): > 100 µg/mL
CC50 [1]: > 100 µg/mL
CC50 (in vitro): 36 µg/mL (≈ 139 µM)

CCCCCCCOC(=O)ONc1ccn([C@@H]2O[C@H](CO)C(O)C2O)c(=O)n1 (some centres unmarked) [drawing 70]
EC50 (SARS Coronavirus Urbani): 0.28 µg/mL (≈ 0.698 µM)
CC50 (in vitro): > 100 µg/mL

CCCCCCCNC(=O)ONc1ccn([C@@H]2O[C@H](CO)C(O)C2O)c(=O)n1 (some centres unmarked) [drawing 87]
Cell Viability 10 uM (Astrocytes): 98% ± 12% (n = 3)
Cell Viability 50 uM (Astrocytes): 85% ± 19% (n = 3)
inhibition at 10 µM (VEEV; read-out: Viral Inh. 10 uM): 51%
inhibition at 50 µM (VEEV; read-out: Viral Inh. 50 uM): 37%

O=c1nc(NO)ccn1[C@@H]1O[C@H](CO)C(O)C1O (some centres unmarked) [drawing 88]
inhibition at 10 µM (MERV): 99%
inhibition at 50 µM (MERV): 100%
Cell Viability 10 uM (Vero): 75% ± 6% (n = 4)
Cell Viability 50 uM (Vero): 47% ± 3% (n = 4)

CCCCCCCOC(=O)ONc1ccn([C@@H]2O[C@H](CO)C(O)C2O)c(=O)n1 (some centres unmarked) [drawing 89]
inhibition at 10 µM (MERV): 99%
inhibition at 50 µM (MERV): 99%
Cell Viability 10 uM (Vero): 84% ± 8% (n = 4)
Cell Viability 50 uM (Vero): 58% ± 2% (n = 4)

CC(C)OC(=O)[C@H](C)NP(=O)(OC[C@H]1O[C@@H](n2ccc(NO)nc2=O)C(O)C1O)Oc1ccccc1 (some centres unmarked) [drawing 90]
inhibition at 10 µM (MERV): 29%
inhibition at 50 µM (MERV): 85%
Cell Viability 10 uM (Vero): 103% ± 14% (n = 4)
Cell Viability 50 uM (Vero): 102% ± 36% (n = 4)

CCCCCCCNC(=O)ONc1ccn([C@@H]2O[C@H](CO)C(O)C2O)c(=O)n1 (some centres unmarked) [drawing 92]
inhibition at 10 µM (MERV): 86%
inhibition at 50 µM (MERV): 98%
Cell Viability 10 uM (Vero): 118% ± 15% (n = 4)
Cell Viability 50 uM (Vero): 91% ± 39% (n = 4)
